Reference: US20090203671A1, “METHOD OF TREATING CANCER” (ABBOTT LABORATORIES, priority 2007, published 2009)

B1: TRAIL: tumor necrosis factor (TNF)-related apoptosis inducing ligand; binds death receptors DR4 and DR5 (protein, UniProt P50591 1-281, looked up)
Tumor necrosis factor ligand …: MAMMEVQGGPSLGQTCVLIVIFTVLLQSLCVAVTYVYFTNELKQMQDKYSKSGIACFLKEDDSYWDPNDEESMNSPCWQVKWQLRQLVRKMILRTSEETISTVQEKQQNISPLVRERGPQRVAAHITGTRGRSNTLSSPNSKNEKALGRKINSWESSRSGHSFLSNLHLRNGELVIHEKGFYYIYSQTYFRFQEEIKENTKNDKQMVQYIYKYTSYPDPILLMKSARNSCWSKDAEYGLYSIYQGGIFELKENDRIFVSVTNEHLIDMDHEASFFGAFLVG

Columns and labels:
[1] = test system: D54MG glioblastoma multiforme cell line; assay: Cell proliferation assay (CellTiter-Glo), Aurora inhibitor combined with TRAIL; format: cell-based; conditions: Aurora inhibitor at 1 μM combined with TRAIL, 72 h, FIG. 1
Experimental: Cells were seeded into 96-well plates at 2,500 cells per well and allowed to adhere overnight. Compounds and TRAIL were added the following day, and cells were incubated at 37° C. for 72 h. […] Percent inhibition of viability was determined relative to cells treated with DMSO alone (0.1%). Data are representative of at least three independent experiments with each data point carried out in triplicate.

[2] = test system: glioma cell lines where DR5 was induced; assay: TRAIL-mediated apoptosis in glioma cell lines after polyploidization; format: cell-based; conditions: glioma cell lines where DR5 was induced following polyploidization
Experimental: To identify candidate apoptosis-sensitizing genes that could be exploited in combination with Aurora kinase inhibitors in malignant glioma, global gene expression analysis in a D54MG glioma cell derivative treated with three Aurora kinases inhibitors chosen for their distinctive selectivities was carried out: MLN8054 (4-((9-chloro-7-(2,6-difluorophenyl)-5H-pyrimidol[5,4-d][2]benzazepin-2-yl)amino)benzoic acid, Aurora-A-selective), AZD1152-HQPA (Aurora-B-selective), and VX-680 (Aurora-A/B). This analysis identified the TRAIL death receptor, DR5, as an apoptosis sensitizing gene induced selectively following inhibition of Aurora-B kinase cancer cells. In glioma cell lines where DR5 was induced following polyploidization, the sensitivity, kinetics, and magnitude of TRAIL-mediated apoptosis were enhanced.

Molecule | anti-proliferative effect of combination with TRAIL [1] | sensitivity, kinetics, and magnitude of TRAIL-mediated apoptosis [2]
CCN(CCO)CCCOc1ccc2c(Nc3cc(CC(=O)Nc4cccc(F)c4)[nH]n3)ncnc2c1 [AZD 1152-HQPA] | synergistic anti-proliferative effects | 
O=C(O)c1ccc(Nc2ncc3c(n2)-c2ccc(Cl)cc2C(c2c(F)cccc2F)=NC3)cc1 [MLN-8054, 4-((9-chloro-7-(2,6-difluorophenyl)-5H-pyrimidol[5,4-d][2]benzazepin-2-yl)amino)benzoic acid] | synergistic anti-proliferative effects | 
Cc1cc(Nc2cc(N3CCN(C)CC3)nc(Sc3ccc(NC(=O)C4CC4)cc3)n2)n[nH]1 [VX-680/MK0457] | synergistic anti-proliferative effects | 
B1 |  | enhanced
